{
  "source": "patent US20110136868A1",
  "about": "“AGENTS FOR INHIBITING OSTEOCLASTOGENESIS AND/OR OSTEOCLAST ACTIVATION” (University of Oxford, priority 2009, published 2011)",
  "key": {"[1]": {"tested_on": "Mouse bone marrow cells", "test": "in vitro RANKL-dependent osteoclastogenesis, TRAP positive osteoclast count", "format": "cell-based", "procedure": "Cultures on plastic plates were fixed and stained for TRAP (tartrate resistant acid […]). TRAP positive multi-nuclear (>3 nuclei) osteoclast cells were counted.\nB. Mouse bone marrow cells were cultured in the presence of 25 ng/ml M-CSF with 50 ng/ml RANKL in 48-well plates. On day 3 d-PDMP (1.25, 5 or 20 μM), NB-DNJ, NB-DGJ, or N-OD-DNJ (5, 50, or 500 μM) were added. Cells were cultured for another 24 hours before fixed and stained for TRAP. TRAP positive osteoclast cells mature were counted on day 4 (left). Morphology of 4 day osteoclasts."}, "[2]": {"tested_on": "RAW 264.7 murine macrophage cells", "test": "Association of TRAF6 and Src with lipid rafts, sucrose gradient fractionation", "format": "cell-based", "conditions": "50 ng/ml RANKL, 4 days", "procedure": "Localization of TRAF6, […] GM1 gangliosides in lipid rafts (fraction 3-5) or non-raft fractions (fraction 7-9) in RAW 264.7 murine macrophage cells were cultured in medium only (control), in the presence of 50 ng/ml RANKL or RANKL+NB-DNJ in 48-well plates for 4 days. Cell lysates were prepared and separated using discontinuous sucrose gradient ultracentrifugation. A total of 9 fractions (1 ml each) were collected from the top to the bottom of the gradients, fraction 2 to 5 were positive for GM1 gangliosides, i.e. contained lipid rafts. The non-raft fractions were 7 to 9. Without RANKL, TRAF6 localises in the non-raft fraction while Src is presented in both raft and nonraft fractions. After RANKL treatment, TRAF6 was detected in raft fraction and Src almost totally shifted into the raft fractions."}, "[3]": {"tested_on": "MAPK signaling (ERK, p38, JNK)", "test": "MAPK signalling during osteoclastogenesis, immunoblot pERK1/2, pP38, pJNK after RANKL or M-CSF", "format": "cell-based, mouse", "conditions": "BMCs day 3, serum starved overnight", "procedure": "(§1) BMCs were cultured to day 3 then starved in 0.5% serum medium overnight. Cells were treated with RANKL (A) or M-CSF (B) for the time points indicated and then immunoblotted with α-pERK1/2, α-pP38, α-pJNK antibodies. Membranes were stripped and restained with α-ERK, α-P38, α-JNK antibodies. […] Overnight serum starved OC were treated as indicated as subsequently stained with anti-NFATc1 and viewed by immunofluorescent microscopy. NB-DNJ abrogated the M-CSF+RANKL-induced accumulation of NFAtc1 in the nyclei. (D) BMCs were cultured 48 h with different combination of M-CSF, RANKL and NB-DNJ. Cells were collected and nuclear protein extracted and NFATc1 expression was checked by Western blot. Staining of histone-1 served as loading control."}, "[4]": {"tested_on": "osteoclast activation", "test": "in vivo RANKL-induced OC activation, serum CTX levels", "design": "species or system mice", "conditions": "NB-DNJ 500 mg/Kg i.p. daily, RANKL 4 mg/day i.p. from day 3"}, "[5]": {"tested_on": "human, monocyte-derived OC", "test": "RANKL- and M-CSF-dependent development of human monocyte-derived OC", "format": "cell-based", "conditions": "added either in the beginning or during OC differentiation cultures"}, "[6]": {"tested_on": "NFATc1", "test": "NFATc1 nuclear accumulation in OC (immunofluorescence, Western blot of nuclear protein)", "format": "cell-based, mouse", "procedure": "as §1"}, "[7]": {"tested_on": "osteoclast activation", "test": "in vivo alpha-galactosylceramide-induced OC activation, serum CTX levels", "design": "species or system C57BL/6 mice", "procedure": "NB-DNJ (500 mg/Kg) or PBS were injected intraperitoneal (i.p.) once a day for 6 consecutive days in 8 wk old C57BL/6 mice. Alpha-galactosylceramide or PBS was administered by a single i.p. injection of 2 μg on day 3. Serum collected on day 7 was used to determine carboxyterminal cross-linking telopeptide of type 1 collagen (CTX) levels (n=4-5 8 wk old female C57BL/6 mice)."}, "[8]": {"tested_on": "β-glucosidase", "conditions": "Platt et al. 1994; cited from earlier work"}, "[9]": {"tested_on": "MAPK signaling (ERK, p38, JNK)", "test": "GM3-induced ERK, P38, JNK phosphorylation in OC, immunoblot", "format": "cell-based, mouse", "procedure": "D. OC were cultured with M-CSF+RANKL to day 3 then starved in 0.5% serum medium overnight. Cells were treated with GM3 or GM3+NB-DNJ for the time points indicated and then immunoblotted with α-pERK1/2, α-pP38, α-pJNK antibodies. Membranes were stripped and restained with α-ERK, α-P38, α-JNK antibodies."}, "[10]": {"tested_on": "α-glucosidase", "conditions": "Platt et al. 1994; cited from earlier work"}, "[11]": {"molecular_target": "T1, ceramide glucosyltransferase (CGT) (Homo sapiens, UniProt Q16739)", "T1 sequence (Q16739 1-394)": "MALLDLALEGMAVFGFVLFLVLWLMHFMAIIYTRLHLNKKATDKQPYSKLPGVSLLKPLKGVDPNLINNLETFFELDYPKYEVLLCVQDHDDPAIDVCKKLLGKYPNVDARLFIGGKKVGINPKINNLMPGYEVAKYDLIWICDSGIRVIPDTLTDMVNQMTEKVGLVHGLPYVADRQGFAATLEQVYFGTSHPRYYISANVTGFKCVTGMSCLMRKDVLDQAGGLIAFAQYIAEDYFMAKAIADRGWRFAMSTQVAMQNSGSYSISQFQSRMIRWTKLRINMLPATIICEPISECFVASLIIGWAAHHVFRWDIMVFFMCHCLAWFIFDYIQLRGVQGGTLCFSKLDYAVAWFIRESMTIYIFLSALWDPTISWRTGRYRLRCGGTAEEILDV", "conditions": "literature; cited from earlier work"}, "[12]": {"tested_on": "osteoclast formation", "conditions": "Iwamoto et al. 2001, cited from earlier work"}, "[13]": {"tested_on": "Mouse bone marrow cells", "test": "Promotion of osteoclastogenesis by GM3 and IGF-1 with M-CSF and RANKL, TRAP positive mature osteoclast count", "format": "cell-based", "procedure": "A. Mouse bone marrow cells were cultured in the presence of 25 ng/ml M-CSF with 50 ng/ml RANKL and GM3 (0.05, 0.5 or 5 μM) in 48-well plates for 4 days. Cultures on plastic plates were fixed and stained for TRAP. TRAP positive mature osteoclast cells were counted.\nAs well as RANKL+M-CSF, IGF-1 at the indicated concentrations was added.\nC. […] OC were developed in the presence of RANKL+M-CSF (control), or these two cytokines plus IGF-1, GM3 or IGF-1+GM3."}},
  "note": "“Also recorded” adds a separate entry of the source.",
  "data": [
    {"compound": "CCCCN1C[C@H](O)[C@@H](O)[C@@H](O)[C@H]1CO", "note": "[NB-DGJ, N-butyl-deoxygalactonojirimycin]", "values": [
      {"measurement": "reduction in OC activation compared with NB-DNJ", "setting": "[1]", "result": "significantly less potent"}
    ]},
    {"compound": "CCCCN1C[C@H](O)[C@@H](O)[C@H](O)[C@H]1CO", "note": "[NB-DNJ, N-butyl-deoxynojirimycin]", "values": [
      {"measurement": "inhibition of RANKL- and M-CSF-dependent development of murine OC", "setting": "[1]; added either in the beginning or during OC differentiation cultures", "result": "inhibit RANKL- and M-CSF-dependent development of murine as well as human, monocyte-derived OC in a dose dependent manner"},
      {"measurement": "RANKL-induced localisation of TRAF6 and Src in lipid rafts", "setting": "[2]", "result": "TRAF6 and Src are excluded from the rafts"},
      {"measurement": "RANKL- and M-CSF-dependent phosphorylation of ERK, JNK and p38", "setting": "[3]", "result": "phosphotylation of p38 and to a lesser extend of ERKa,d Jnk is observed; also recorded: significantly reduced"},
      {"measurement": "serum CTX levels, RANKL-induced OC activation", "setting": "[4]", "result": "inhibits RANKL-induced OC activation"},
      {"measurement": "inhibition of RANKL- and M-CSF-dependent development of human monocyte-derived OC", "setting": "[5]", "result": "inhibit RANKL- and M-CSF-dependent development of murine as well as human, monocyte-derived OC in a dose dependent manner"},
      {"measurement": "nuclear NFATc1 expression", "setting": "[6]; Western blot, BMCs cultured 48 h with M-CSF, RANKL", "result": "Considerably less nuclear NFTc1"},
      {"measurement": "M-CSF+RANKL-induced accumulation of NFATc1 in the nuclei", "setting": "[6]; immunofluorescent microscopy, serum starved OC", "result": "abrogated; also recorded: reduced localisation of NFATc in the nucleus"},
      {"measurement": "serum CTX levels, αGC-induced OC activation", "setting": "[7]; NB-DNJ 500 mg/Kg i.p. daily plus alpha-galactosylceramide 2 μg i.p. day 3, serum day 7", "result": "inhibits a-galactosylceramide-induced OC activation; also recorded: returned to baseline"},
      {"measurement": "serum CTX levels, NB-DNJ only", "setting": "[7]; mice receiving only NB-DNJ, p>0.05", "result": "not significantly different to vehicle controls"},
      {"measurement": "β-glucosidase inhibitory activity", "setting": "[8]", "result": "have both α- and β-glucosidase inhibitory activities"},
      {"measurement": "GM3-promoted phosphorylation of ERK, P38 and JNK, effect of NB-DNJ", "setting": "[9]", "result": "abrogated"},
      {"measurement": "α-glucosidase inhibitory activity", "setting": "[10]", "result": "have both α- and β-glucosidase inhibitory activities"}
    ]},
    {"compound": "CCCCCCCCCC(=O)N[C@H](CN1CCOCC1)[C@H](O)c1ccccc1", "note": "[d-PDMP, D-threo-1-phenyl-2-decanoylamin-3-morpholino-1-propanol]", "values": [
      {"measurement": "reduction in OC activation compared with NB-DNJ", "setting": "[1]", "result": "as effective"},
      {"measurement": "inhibitory effect on CGT", "setting": "[11]", "result": "known CGT inhibitor"},
      {"measurement": "inhibition of osteoclast formation / OC development", "setting": "[12]", "result": "can inhibit the osteoclast formation; also recorded: can prevent OC development"}
    ]},
    {"compound": "CCCCCCCCCCCCCCCCCCCCCCCCCC(=O)N[C@@H](CO[C@H]1O[C@H](CO)[C@H](O)[C@H](O)[C@H]1O)[C@H](O)[C@H](O)CCCCCCCCCCCCCC", "note": "[αGC, alpha-galactosylceramide]", "values": [
      {"measurement": "increase of serum CTX levels", "setting": "[7]; mice receiving αGC, p<0.01", "result": "~50", "unit": "%"}
    ]},
    {"compound": "IGF-1: growth factor known to promote myeloma growth and OC activation", "values": [
      {"measurement": "osteoclastogenesis with IGF-1", "setting": "[13]; RANKL+M-CSF plus IGF-1", "result": "promotes osteoclastogenesis"},
      {"measurement": "OC maturation, GM3 plus IGF-1", "setting": "[13]; RANKL+M-CSF plus IGF-1 and GM3", "result": "co-operates with GM3 in promoting osteoclastogenesis"}
    ]},
    {"compound": "lactosylceramide", "values": [
      {"measurement": "effect on RANKL-dependent osteoclastogenesis", "setting": "[12]; exogenous, in vitro", "result": "synergistic effect"}
    ]}
  ]
}
